Key:
[1] = target: T1, Mitogen-activated protein kinase 1 (Homo sapiens, UniProt P28482); assay: (§1) Kinase Assay (New): Compound potency against activated ERK2 is determined using a kinase assay that measures ERK2-catalyzed phosphorylation of biotinylated ERKtide peptide substrate ([Biotin]-AHA-KRELVEPLTPSGEAPNQALLR-[NH2], the peptide sequence derived from EGF receptor: SEQ ID NO:1). The assay is carried out in 50 mM HEPES [pH 7.5], 5 mM MgCl2, 1 mM DTT, 0.01% Tween-20, 0.05% BSA using 0.25 nM ERK2, 200 nM ERKtide peptide and 35 uM ATP (all concentrations are final in the reaction) in a total volume of 10.25 uL. A 16-point, half-log dilution series of compounds at 41x final concentration is used for generating IC50 curves. Compound dilution series are prepared in 100% DMSO. ERK2 is preincubated with compounds for 30 minutes at ambient temperature. Reaction is initiated by addition of a substrate cocktail of ERKtide peptide and ATP and is allowed to proceed for 2-3 hours at ambient temperature. Reaction is terminated by addition of 10 uL of a 2x stop buffer consisting of 100 mM Tris-Cl [pH 7.5], 25 mM EDTA, 0.01% Tween 20, 10 ug/mL of AlphaScreen Protein A Acceptor Beads, 10 ug/mL of Streptavidin Donor Beads (PerkinElmer, Waltham, Mass.), and 1.4 ug/mL phospho-EGF Receptor (Thr669) antibody (Cat #3056, Cell Signaling Technology, Danvers, Mass.). Terminated reactions are read, after overnight incubation in the dark, on an EnVision Multilabel Plate Reader (PerkinElmer, Waltham, Mass.), with excitation and emission wavelengths set to 680 nm and 570 nm, respectively. IC50 values are determined using a four-parameter fit.
[2] = target: T1, Mitogen-activated protein kinase 1; assay: The assay was carried out in 20 mM HEPES [pH 7.5], 5 mM MgCl2, 1 mM DTT, 0.01% Tween-20, 0.05% BSA using 0.02 nM ERK2, 400 nM ERKtide peptide and 35 uM ATP (all concentrations are final in the reaction) in a total volume of 10.25 uL. A 16-point, half-log dilution series of compounds at 41x final concentration was used for generating IC50 curves. Compound dilution series were prepared in 100% DMSO. ERK2 was preincubated with compounds for 30 minutes at ambient temperature. Reaction was initiated by addition of a substrate cocktail of ERKtide peptide and ATP and was allowed to proceed for 4 hours at ambient temperature. Reaction was terminated by addition of 10 uL of a 2x stop buffer consisting of 100 mM Tris-Cl [pH 7.5], 25 mM EDTA, 0.01% Tween 20, 20 ug/mL of AlphaScreen Protein A Acceptor Beads, 20 ug/mL of Streptavidin Donor Beads (PerkinElmer, Waltham, Mass.), and 1:1000 dilution phospho-EGF Receptor (Thr669) antibody (Cat #8808, Cell Signaling Technology, Danvers, Mass.). Terminated reactions were read, after overnight incubation in the dark, on an EnVision Multilabel Plate Reader (PerkinElmer, Waltham, Mass.), with excitation and emission wavelengths set to 680 nm and 570 nm, respectively. IC50 values were determined using a four-parameter fit.
[3] = target: T1, Mitogen-activated protein kinase 1; assay: as §1, with “AlphaScreen Assay:” for “Kinase Assay (New):”, “Mass.).” for “Mass.). Terminated reactions are read, after overnight incubation in the dark, on an EnVision Multilabel Plate Reader (PerkinElmer, Waltham, Mass.), with excitation and emission wavelengths set to 680 nm and 570 nm, respectively. IC50 values are determined using a four-parameter fit.”

T1 sequence (P28482 whole entry): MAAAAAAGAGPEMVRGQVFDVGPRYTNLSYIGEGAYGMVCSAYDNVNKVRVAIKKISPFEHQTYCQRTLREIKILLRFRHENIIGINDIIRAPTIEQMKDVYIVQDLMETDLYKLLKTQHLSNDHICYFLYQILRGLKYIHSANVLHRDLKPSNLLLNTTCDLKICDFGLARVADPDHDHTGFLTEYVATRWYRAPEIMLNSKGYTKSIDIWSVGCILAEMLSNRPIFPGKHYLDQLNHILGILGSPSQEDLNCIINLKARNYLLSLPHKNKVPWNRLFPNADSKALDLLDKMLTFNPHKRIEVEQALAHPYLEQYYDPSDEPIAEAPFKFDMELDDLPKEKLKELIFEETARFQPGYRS

SMILES	IC50 [1]	IC50 [2]	IC50 [3]
CS(=O)(=O)[C@H]1CC[C@H](c2cnc(N)c(-c3ccc(C(=O)NCc4ccccc4)c(F)c3)n2)CC1	64.4 nM	29.7 nM	–
Nc1ncc([C@H]2CC[C@H](O)CC2)nc1-c1ccc(C(=O)NCc2cccc(Cl)n2)c(F)c1	–	21 nM	–
Nc1ncc(C2CCOCC2)nc1-c1ccc(C(=O)N[C@H](CO)C2CCCCC2)c(F)c1	26.5 nM	–	–
Nc1cc(-c2cc(C3CCOCC3)cnc2N)ccc1C(=O)N[C@H](CO)c1ccccc1	–	3.04 nM	5.24 nM
Nc1ncc([C@H]2CC[C@@H](O)CC2)nc1-c1ccc(C(=O)NCc2cccc(Cl)n2)c(F)c1	–	159 nM	–

More lines, now with the values ahead:

IC50 [1]	IC50 [2]	IC50 [3]	SMILES
9.77 nM	–	–	Cn1cc(-c2cnc(N)c(-c3ccc(C(=O)N[C@H](CO)c4ccccc4)c(F)c3)c2F)cn1
–	0.0937 nM	–	Cn1ccc(-c2cnc(N)c(-c3ccc(C(=O)N[C@H](CO)c4cccc(Cl)c4)c(F)c3)c2)n1
1.41 nM	–	–	Cc1nn(C)cc1-c1cnc(N)c(-c2ccc(C(=O)N[C@H](CO)c3ccccc3)c(F)c2)c1
–	1.31 nM	20.6 nM	Nc1ncc(N2CCOCC2)cc1-c1ccc(C(=O)N[C@H](CO)c2ccccc2)c(F)c1
2.06 nM	–	–	CC(C)n1cc(-c2cnc(N)c(-c3ccc(C(=O)N[C@H](CO)c4ccccc4)c(F)c3)c2)cn1
–	0.0245 nM	–	Cc1nn(C(F)F)cc1-c1cnc(N)c(-c2ccc(C(=O)N[C@H](CO)c3cccc(Cl)c3)c(F)c2)c1
